Values quoted from earlier work, collected in US20060258708A1, “Method for treating Parkinson's disease and other neurological diseases” (priority 2005, published 2006).

What was measured:
[1] = humans
[2] = racemic thalidomide, animals
[3] = tested on: tumor necrosis factor alpha production by stimulated monocytes

Which maximal blood concentration ([1]; 100 to 200 mg ingested) does the source give for `O=C1CCC(N2C(=O)c3ccccc3C2=O)C(=O)N1` (racemic) [Thalidomide, N-phthalidoglutarimide] here?
Its maximal blood concentration is 0.9 to 1.5 mg/L.

What about the “time at which maximal blood concentration is attained” value ([1]; 100 to 200 mg ingested) of the same compound?
Its value is 4 to 6 h.

What about the oral absorption ([1]; orally administered) of the same compound?
Its oral absorption is “poorly absorbed”.

What about the “toxicity in a series of animal studies” value [2] of the same compound?
Its value is “has not been toxic”.

And the “effect on tumor necrosis factor alpha production” value [3]?
The value was “inhibit”.
